# Measurements taken from publication PMC6902473 (Clinical Epigenetics, 2019).
# “And” between values parts separate entries of the source, which are not always exact repeats. Equal values may be shown once.
# Experiments:
# [1] = system: relapsed or therapy-refractory solid tumors (including brain tumors), lymphoma, or leukemia; assay: Phase II tumor response and survival at individual MTD (RECIST version 1.1)
# Description: During phase II, disease assessments were performed every 3 months, starting 3 months after reaching individual MTD. If treatment was discontinued for any reason during phase II, treatment was prolonged thereafter to provide a minimal treatment window of 3 months before measuring response. Patients without progressive disease continued the therapy at their individual MTD until disease progression (but no longer than 9 months). In case of clinical benefit, treatment could be continued on an individual basis at the discretion of the investigator. Toxicities were graded according CTCAE V4.0.
# The primary end point was to determine a safe dose recommendation (SDR), defined as the highest dose with a DLT in no more than 1/50 patients.
# Pretreatment evaluations included medical history, physical examination, ECG, ß-hCG in urine pregnancy test (if applicable), and complete blood count including differential, serum electrolytes liver, and renal function tests. Tumor markers were determined if appropriate. During phase I and the first 3 months of phase II (until the first response evaluation), history, physical examination, and laboratory studies were obtained weekly. If patients continued treatment beyond the first response evaluation in phase II (i.e., not showing PD), evaluations were performed every 2 weeks. After end of treatment, patients were followed-up for 3 months according the same scheme. In addition, an ECG was performed during phase I on day 8, 15, and at the time of reaching the individual MTD. Disease evaluations were performed at baseline, after 3 months of treatment at individual MTD, and every 3 months thereafter, using MRI (solid tumors, brain tumors, lymphomas), MIBG scan (neuroblastoma), or bone marrow evaluation (leukemia). Responses were reported using RECIST version 1.1 (solid tumors, brain tumors, lymphomas) [42–44] or the International Neuroblastoma Response Criteria (INRC) (neuroblastoma) [45], by central review. Bone marrow aspirates were evaluated in a central lab together with peripheral blood differential blood counts.
# Standard methods for survival analysis (e.g., Kaplan-Meier estimates of the survival curves, Greenwood’s formula for estimating the standard error of event rates) were used for the analysis of time-to-event endpoints. […] Efficacy analysis included all patients who had completed the escalation/de-escalation scheme and started with the individual therapy at the MTD.
# The AUCs were calculated by mixed log-linear model. Following exploratory aims to predict progression free survival (PFS) and overall survival (OS), an optimal cutpoint in the continuous PK parameter distributions of Cmax and AUC/D was determined by the minimum p value approach based on the log-rank test [51]. Graphical and statistical analysis was performed with Graphpad Prism 7.0 (Graphpad Software Inc., La Jolla, CA, USA), Kinetica 5.0 (Thermo Fisher Scientific, Waltham, MA, USA), and the R software/environment version 3.5.1 (R Foundation for Statistical Computing, Vienna, Austria).
# [2] = Plasma pharmacokinetics of vorinostat after oral administration (non-compartmental analysis)
# Description: The assays were validated according to the common FDA and EMA guidelines on bioanalytical method validation.
# [3] = single patient: High grade glioma, highest methylation score for glioblastoma IDH wt, (NC) not censored
# [4] = single patient: High grade glioma, methylation profile pilocytic astrocytoma, BRAF (p.V600E), (C) censored
# [5] = single patient: Medulloblastoma, (C) censored
# [6] = single patient: SETTLE tumor, (C) censored
# [7] = 530 mg/m2/d oral, plasma, maximum of 3 values
# [8] = 530 mg/m2/d oral, plasma, minimum of 3 values
compound,measurement,setting,value
O=C(CCCCCCC(=O)Nc1ccccc1)NO [vorinostat],Best ORR (CR + PR + SD),[1]; Efficacy population (n = 27),"6 (22.2, 8.6–42.3) No. (%, 95% CI)"
same,Best RR (CR + PR),[1]; Efficacy population (n = 27),"4 (14.8, 4.2–33.7) No. (%, 95% CI)"
same,Median OS (95% CI),[1]; Efficacy population (n = 27),22.4 months and 22.4 (6.3 - --) months
same,Median PFS (95% CI),[1]; Efficacy population (n = 27),5.3 (4.6–5.9) months
same,Median response duration,[1]; Efficacy population (n = 27),19.1 months
same,"best overall response rate (combining PR and SD, no CR observed)",[1]; Efficacy population (n = 27),22%
same,Best ORR (CR + PR + SD),[1]; Safety population (n = 50),"6 (12.0, 4.5–24.3) No. (%, 95% CI)"
same,Best RR (CR + PR),[1]; Safety population (n = 50),"4 (8.0, 2.2–19.2) No. (%, 95% CI)"
same,Median OS (95% CI),[1]; Safety population (n = 50),6.1 (4.0–10.4) months
same,Median PFS (95% CI),[1]; Safety population (n = 50),4.6 (3.7–5.3) months
same,Median response duration,[1]; Safety population (n = 50),19.1 months
same,patients with partial response (PR),"[1]; first response evaluation, after 3-month treatment at individual MTD, efficacy population",3/27
same,OS,[1]; [3],750 (NC) Days
same,PFS,[1]; [3],441 (NC) Days
same,OS,[1]; [4],1352 (C) Days
same,PFS,[1]; [4],385 (C) Days
same,PFS,"[1]; single patient: High grade glioma, no molecular data, last dose level 280 mg/m^2/d, (C) censored",499 (C) Days
same,OS,"[1]; single patient: High grade glioma, no molecular data, last dose level 280 mg/m^2/d, (NC) not censored",682 (NC) Days
same,OS,[1]; [5],871 (C) Days
same,PFS,[1]; [5],422 (C) Days
same,OS,[1]; [6],1190 (C) Days
same,PFS,[1]; [6],456 (C) Days
same,"Clearance, Maximum",[2]; [7],678 L/h
same,"Cmax, Maximum",[2]; [7],629 ng/mL
same,"Clearance, Minimum",[2]; [8],241 L/h
same,"Cmax, Minimum",[2]; [8],451 ng/mL
same,"Vz, Minimum",[2]; [8],508 L
same,t1/2,"[2]; dose level 130 mg/m2/d, mean",2.16 h
same,t1/2,"[2]; dose level 130 mg/m2/d, median",2.16 h
same,t1/2,"[2]; dose level 180 mg/m2/d, mean",2.22 h
same,t1/2,"[2]; dose level 330 mg/m2/d, mean",2.13 h
same,AUC(0-t),"[2]; human, in vivo, 130 mg/m2",1140 ng·h/mL
same,Clearance,"[2]; human, in vivo, 130 mg/m2",167 L/h
same,Vz,"[2]; human, in vivo, 130 mg/m2",563 L
same,AUC(0-t),"[2]; human, in vivo, 130 mg/m2, AUClast",4.32 µM·h and 970 ng·h/mL
same,Clearance,"[2]; human, in vivo, 130 mg/m2, Clearance",108 L/h
same,Cmax,"[2]; human, in vivo, 130 mg/m2, Cmax",1.02 µM and 269 ng/mL
same,Vd,"[2]; human, in vivo, 130 mg/m2, Vz",336 L
same,Clearance,"[2]; human, in vivo, 180 mg/m2",225 L/h
same,Tmax,"[2]; human, in vivo, 180 mg/m2",2.39 h
same,Vz,"[2]; human, in vivo, 180 mg/m2",681 L
same,t1/2,"[2]; human, in vivo, 180 mg/m2",1.93 h
same,AUC(0-t),"[2]; human, in vivo, 180 mg/m2, AUClast",3.75 µM·h and 992 ng·h/mL
same,Clearance,"[2]; human, in vivo, 180 mg/m2, Clearance",182 L/h
same,Cmax,"[2]; human, in vivo, 180 mg/m2, Cmax",1.06 µM and 281 ng/mL
same,Tmax,"[2]; human, in vivo, 180 mg/m2, Tmax",1.5 h
same,Vd,"[2]; human, in vivo, 180 mg/m2, Vz",490 L
same,Clearance,"[2]; human, in vivo, 214 mg/m2",399 L/h
same,AUC(0-t),"[2]; human, in vivo, 214 mg/m2, AUClast",2.52 µM·h and 666 ng·h/mL
same,Clearance,"[2]; human, in vivo, 214 mg/m2, Clearance",399 L/h
same,Cmax,"[2]; human, in vivo, 214 mg/m2, Cmax",1.29 µM and 341 ng/mL
same,half-life,"[2]; human, in vivo, 214 mg/m2, t1/2",67.2 min
same,AUCtotal,"[2]; human, in vivo, 230 mg/m2",1310 ng·h/mL
same,Clearance,"[2]; human, in vivo, 230 mg/m2",257 L/h
same,Vz,"[2]; human, in vivo, 230 mg/m2",640 L
same,AUC(0-t),"[2]; human, in vivo, 230 mg/m2, AUClast",4.89 µM·h and 1290 ng·h/mL
same,Clearance,"[2]; human, in vivo, 230 mg/m2, Clearance",221 L/h
same,Cmax,"[2]; human, in vivo, 230 mg/m2, Cmax",1.44 µM and 380 ng/mL
same,Tmax,"[2]; human, in vivo, 230 mg/m2, Tmax",1.5 h
same,Vd,"[2]; human, in vivo, 230 mg/m2, Vz",532 L
same,half-life,"[2]; human, in vivo, 230 mg/m2, t1/2",97.8 min
same,Clearance,"[2]; human, in vivo, 250 mg/m2",189 L/h
same,Tmax,"[2]; human, in vivo, 250 mg/m2",1.75 h
same,t1/2,"[2]; human, in vivo, 250 mg/m2",1.48 h
same,AUC(0-t),"[2]; human, in vivo, 250 mg/m2, AUClast",5.77 µM·h and 1520 ng·h/mL
same,Clearance,"[2]; human, in vivo, 250 mg/m2, Clearance",189 L/h
same,Tmax,"[2]; human, in vivo, 250 mg/m2, Tmax",1.75 h
same,Vd,"[2]; human, in vivo, 250 mg/m2, Vz",398 L
same,half-life,"[2]; human, in vivo, 250 mg/m2, t1/2",88.8 min
same,AUC(0-t),"[2]; human, in vivo, 280 mg/m2",4.96 µM·h
same,Clearance,"[2]; human, in vivo, 280 mg/m2",195 L/h
same,Tmax,"[2]; human, in vivo, 280 mg/m2",2.09 h
same,t1/2,"[2]; human, in vivo, 280 mg/m2",1.83 h
same,AUC(0-t),"[2]; human, in vivo, 280 mg/m2, AUClast",1310 ng·h/mL and 6.33 µM·h
same,Clearance,"[2]; human, in vivo, 280 mg/m2, Clearance",207 L/h
same,Tmax,"[2]; human, in vivo, 280 mg/m2, Tmax",1.5 h
same,half-life,"[2]; human, in vivo, 280 mg/m2, t1/2",90 min
same,Clearance,"[2]; human, in vivo, 330 mg/m2",149 L/h
same,Tmax,"[2]; human, in vivo, 330 mg/m2",2.00 h
same,Vz,"[2]; human, in vivo, 330 mg/m2",427 L
same,AUC(0-t),"[2]; human, in vivo, 330 mg/m2, AUClast",8.06 µM·h and 2130 ng·h/mL
same,Clearance,"[2]; human, in vivo, 330 mg/m2, Clearance",126 L/h
same,Cmax,"[2]; human, in vivo, 330 mg/m2, Cmax",1.83 µM and 483 ng/mL
same,Tmax,"[2]; human, in vivo, 330 mg/m2, Tmax",2.5 h
same,Vd,"[2]; human, in vivo, 330 mg/m2, Vz",429 L
same,half-life,"[2]; human, in vivo, 330 mg/m2, t1/2",113 min
same,AUC(0-t),"[2]; human, in vivo, 380 mg/m2, AUClast",14.2 µM·h and 3750 ng·h/mL
same,Cmax,"[2]; human, in vivo, 380 mg/m2, Cmax",3.38 µM and 893 ng/mL
same,Tmax,"[2]; human, in vivo, 380 mg/m2, Tmax",4.3 h
same,Clearance,"[2]; human, in vivo, 430 mg/m2",174 L/h
same,Tmax,"[2]; human, in vivo, 430 mg/m2",1.00 h
same,t1/2,"[2]; human, in vivo, 430 mg/m2",2.49 h
same,AUC(0-t),"[2]; human, in vivo, 430 mg/m2, AUClast",6.39 µM·h and 1690 ng·h/mL
same,Clearance,"[2]; human, in vivo, 430 mg/m2, Clearance",174 L/h
same,Vd,"[2]; human, in vivo, 430 mg/m2, Vz",661 L
same,half-life,"[2]; human, in vivo, 430 mg/m2, t1/2",149 min
same,Clearance,"[2]; human, in vivo, 480 mg/m2",237 L/h
same,AUC(0-t),"[2]; human, in vivo, 480 mg/m2, AUClast",14.2 µM·h and 3760 ng·h/mL
same,Clearance,"[2]; human, in vivo, 480 mg/m2, Clearance",237 L/h
same,Cmax,"[2]; human, in vivo, 480 mg/m2, Cmax",4.64 µM and 1230 ng/mL
same,Tmax,"[2]; human, in vivo, 480 mg/m2, Tmax",0.5 h
same,Vd,"[2]; human, in vivo, 480 mg/m2, Vz",421 L
same,Cmax,"[2]; human, in vivo, Cmax",> 270 ng/mL
same,AUC0_0-inf/D,"[2]; human, in vivo, po",5.49 ± 2.75 (ng/mL*h)/(mg/d)
same,Clearance,"[2]; human, in vivo, po",235 ± 149 L/h
same,"Clearance, 25% Percentile","[2]; human, in vivo, po",181 L/h
same,Cmax/D,"[2]; human, in vivo, po",1.70 ± 1.18 (ng/mL)/(mg/d)
same,Vz,"[2]; human, in vivo, po",644 ± 460 L
same,"Vz, 25% Percentile","[2]; human, in vivo, po",397 L
same,t½,"[2]; human, in vivo, po",1.98 ± 0.96 h
same,"Clearance, Mean","[2]; human, in vivo, po, 530 mg/m2",408 L/h
same,"Clearance, Median","[2]; human, in vivo, po, 530 mg/m2",304 L/h
same,"Vz, Maximum","[2]; human, in vivo, po, 530 mg/m2",1330 L
same,"Vz, Mean","[2]; human, in vivo, po, 530 mg/m2",1008 L
same,"Vz, Median","[2]; human, in vivo, po, 530 mg/m2",1186 L
same,AUC(0-t),"[2]; human, in vivo, po, 530 mg/m2, AUClast, Median",5.82 µM·h and 1540 ng·h/mL
same,Tmax,"[2]; human, in vivo, po, 530 mg/m2, Tmax, Mean",2.17 h
same,half-life,"[2]; human, in vivo, po, 530 mg/m2, t1/2, Mean",110 min
same,half-life,"[2]; human, in vivo, po, 530 mg/m2, t1/2, Median",87.6 min
same,"AUClast, Median","[2]; human, in vivo, po, 580 mg/m2",10.3 µM·h
same,"Clearance, Maximum","[2]; human, in vivo, po, 580 mg/m2",453 L/h
same,"Clearance, Mean","[2]; human, in vivo, po, 580 mg/m2",295 L/h
same,"Clearance, Median","[2]; human, in vivo, po, 580 mg/m2",211 L/h
same,"Clearance, Minimum","[2]; human, in vivo, po, 580 mg/m2",155 L/h
same,"Cmax, Maximum","[2]; human, in vivo, po, 580 mg/m2",1689 ng/mL
same,"Cmax, Minimum","[2]; human, in vivo, po, 580 mg/m2",315 ng/mL
same,"Tmax, Maximum","[2]; human, in vivo, po, 580 mg/m2",2.00 h
same,"Tmax, Mean","[2]; human, in vivo, po, 580 mg/m2",1.40 h
same,"Vz, Maximum","[2]; human, in vivo, po, 580 mg/m2",2135 L
same,"Vz, Mean","[2]; human, in vivo, po, 580 mg/m2",793 L
same,"Vz, Median","[2]; human, in vivo, po, 580 mg/m2",480 L
same,"t1/2, Maximum","[2]; human, in vivo, po, 580 mg/m2",3.30 h
same,"t1/2, Minimum","[2]; human, in vivo, po, 580 mg/m2",51 min
same,AUC(0-t),"[2]; human, in vivo, po, 580 mg/m2, AUClast, Mean",11.3 µM·h
same,Cmax,"[2]; human, in vivo, po, 580 mg/m2, Cmax, Mean",4.33 µM and 1140 ng/mL
same,Cmax,"[2]; human, in vivo, po, 580 mg/m2, Cmax, Median",5.42 µM and 1430 ng/mL
same,half-life,"[2]; human, in vivo, po, 580 mg/m2, t1/2, Mean",107 min
same,half-life,"[2]; human, in vivo, po, 580 mg/m2, t1/2, Median",97.2 min
same,Tmax,"[2]; human, in vivo, po, Tmax",2.07 ± 1.37 h
same,Cmax,"[2]; read-out: Cmax, Maximum, 530 mg/m2/d oral, plasma, maximum of 3 values",2380 nM
same,Cmax,"[2]; read-out: Cmax, Minimum, 530 mg/m2/d oral, plasma, minimum of 3 values",1710 nM
